Data published in US4863914A, “Penem derivatives” (Farmitalia Carlo Erba, priority 1985, dated 1989).
In brackets after ≈: the same amount, converted by molar mass. Where two headings read alike, the source gives them in different places.

How the values were obtained:
[1] = test system: P. rettgeri ATCC 9250; assay: In-vitro antibacterial activity, agar dilution technique; assay type: cell-based; settings: Providencia rettgeri, ATCC9250
Source text: (§1) In-Vitro Antibacterial Activity (γ/ml)
(§2) Against Gram-positive And Gram-negative bacteria
(§3) As Determined By The Agar Dilution Technique

[2] = test system: Staphylococcus aureus Smith; assay: as above; assay type: cell-based
Source text: as §1, §2, §3

[3] = test system: S. Epidermidis; assay: as above; assay type: cell-based; settings: Staphylococcus epidermidis
Source text: as §1, §2, §3

[4] = test system: Pseudomonas aeruginosa 2598; assay: as above; assay type: cell-based
Source text: as §1, §2, §3

[5] = test system: E. coli 026:B6 cef R (IV); assay: as above; assay type: cell-based; settings: Escherichia coli
Source text: as §1, §2, §3

[6] = test system: S. pyogenes ATCC 12384; assay: as above; assay type: cell-based; settings: Streptococcus pyogenes
Source text: as §1, §2, §3

[7] = test system: Streptococcus faecalis (4 Strains); assay: as above; assay type: cell-based; settings: Enterococcus faecalis
Source text: as §1, §2, §3

[8] = test system: S. Aureus 209 P; assay: as above; assay type: cell-based; settings: Staphylococcus aureus
Source text: as §1, §2, §3

[9] = test system: Klebsiella aerogenes 1522 E; assay: as above; assay type: cell-based
Source text: as §1, §2, §3

[10] = test system: K. aerogenes 1082 E; assay: as above; assay type: cell-based; settings: Klebsiella aerogenes
Source text: as §1, §2, §3

[11] = test system: Proteus morganii ATCC 25830; assay: as above; assay type: cell-based; settings: Morganella morganii, ATCC25830
Source text: as §1, §2, §3

[12] = test system: Escherichia coli 026:B6; assay: as above; assay type: cell-based
Source text: as §1, §2, §3

[13] = test system: Serratia marcescens ATCC 2902; assay: as above; assay type: cell-based
Source text: as §1, §2, §3

[14] = test system: Citrobacter Freundii ATCC 8090; assay: as above; assay type: cell-based; settings: ATCC8090
Source text: as §1, §2, §3

[15] = test system: Staphylococcus aureus Smith; assay: Experimental infections in mice (intraperitoneal); assay type: in vivo; settings: 0.5 h, S. aureus Smith, intraperitoneal infection in mice, 3 × LD50 challenge, treatment at 30 minutes after infection, read-out: ED50 (cumulative dose)
Procedure: (§4) ^(2) Intraperitoneal infection in mice with a 3 × LD50
(§5) challenge; treatments at 30 minutes after infection for S. aureus and 30,
(§6) 90, 360 minutes for E. coli and K. pneumoniae.

[16] = test system: Escherichia coli G; assay: Experimental infections in mice (intraperitoneal); assay type: in vivo; settings: 6 h, E. coli G, intraperitoneal infection in mice, 3 × LD50 challenge, treatments at 30, 90, 360 minutes, read-out: ED50 (cumulative dose)
Procedure: as §4, §5, §6

[17] = test system: Klebsiella pneumoniae FI 5724; assay: Experimental infections in mice (intraperitoneal); assay type: in vivo; settings: FI5724, 6 h, K. pneumoniae FI 5724, intraperitoneal infection in mice, 3 × LD50 challenge, treatments at 30, 90, 360 minutes, read-out: ED50 (cumulative dose)
Procedure: as §4, §5, §6

[18] = Plasma half-life after a single intravenous dose in the mouse; assay type: in vivo; settings: 10 mg/kg, single intravenous dose 10 mg/kg, two compartments open model
Procedure: | ^(1) Determined after a single intravenous dose (10 mg/kg) in the | mouse; the plasma concentration vs. time data were best described | according to a two compartments open model with the tabulated

[19] = ATCC12384, S. pyogenes ATCC 12384, agar dilution technique, read-out: In-Vitro Antibacterial Activity

Structure (SMILES)	MIC [1]	MIC [2]	MIC [3]	MIC [4]	MIC [5]	MIC [7]	MIC [8]	MIC [9]	MIC [10]	MIC [11]	MIC [12]	MIC [6, 19]	MIC [14]	other results
CO/N=C(\C(=O)N[C@@H]1C(=O)N2C(C(=O)O)=C(COC(C)=O)CS[C@H]12)c1csc(N)n1 [Cefotaxime]	0.018 µg/mL (≈ 0.0395 µM)	0.77 µg/mL (≈ 1.69 µM)	6.25 µg/mL (≈ 13.7 µM)	25 µg/mL (≈ 54.9 µM)	1.25 µg/mL (≈ 2.74 µM)	10 µg/mL (≈ 22 µM)	1.56 µg/mL (≈ 3.43 µM)	0.095 µg/mL (≈ 0.209 µM)	6.25 µg/mL (≈ 13.7 µM)	0.037 µg/mL (≈ 0.0812 µM)	0.38 µg/mL (≈ 0.834 µM)	–	–	MIC ([6]; ATCC12384, read-out: In-Vitro Antibacterial Activity): 1.25 µg/mL (≈ 2.74 µM)
CC(=O)OCC1=C(C(=O)O)N2C(=O)C(C(C)O)C2S1 (stereo not drawn) [FCE 21420]	1.52 µg/mL (≈ 5.29 µM)	0.046 µg/mL (≈ 0.16 µM)	0.76 µg/mL (≈ 2.65 µM)	100 µg/mL (≈ 348 µM)	3.12 µg/mL (≈ 10.9 µM)	0.1 µg/mL (≈ 0.348 µM)	0.046 µg/mL (≈ 0.16 µM)	1.55 µg/mL (≈ 5.4 µM)	0.76 µg/mL (≈ 2.65 µM)	1.52 µg/mL (≈ 5.29 µM)	0.76 µg/mL (≈ 2.65 µM)	0.046 µg/mL (≈ 0.16 µM)	1.52 µg/mL (≈ 5.29 µM)	MIC ([13]; Serratia marcescens, ATCC2902, read-out: In-Vitro Antibacterial Activity): 3.12 µg/mL (≈ 10.9 µM)
C[C@@H](O)[C@H]1C(=O)N2C(C(=O)[O-])=C(c3ccc(C[n+]4ccccc4)cc3)S[C@H]12 [Compound 5, (5R,6S)-6-[(1R)-hydroxyethyl]-2-[4-(pyridiniomethyl)phenyl]penem-3-carboxylate]	0.38 µg/mL (≈ 0.994 µM)	0.011 µg/mL (≈ 0.0288 µM)	0.19 µg/mL (≈ 0.497 µM)	25 µg/mL (≈ 65.4 µM)	0.38 µg/mL (≈ 0.994 µM)	0.06 µg/mL (≈ 0.157 µM)	0.005 µg/mL (≈ 0.0131 µM)	0.38 µg/mL (≈ 0.994 µM)	0.38 µg/mL (≈ 0.994 µM)	0.38 µg/mL (≈ 0.994 µM)	0.19 µg/mL (≈ 0.497 µM)	0.011 µg/mL (≈ 0.0288 µM)	0.19 µg/mL (≈ 0.497 µM)	ED50 [15]: 0.06 mg/kg; ED50 [16]: 0.5 mg/kg; ED50 [17]: 0.8 mg/kg; half-life ([18]; read-out: Plasma half-life t1/2 α): 5 min; half-life ([18]; read-out: Plasma half-life t1/2 β): 15 min; MIC ([13]; ATCC2902, Serratia marcescens ATCC 2902, agar dilution technique, read-out: In-Vitro Antibacterial Activity): 0.76 µg/mL (≈ 1.99 µM)
